Source: PubChem BioAssay (NCI)
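The compound was tested at five concentrations on cells cultured in 96-well plates, with a 48-hour exposure period. GI50 = concentration required for 50% inhibition of growth. At the TGI there is no net growth.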

How the values were obtained:
Assay in all cases: NCI anticancer screen, dose series, 48 h
786-0 renal = test system: 786-0 renal
A498 renal = test system: A498 renal
A549 NSCLC = test system: A549 NSCLC
ACHN renal = test system: ACHN renal
BT-549 breast = test system: BT-549 breast
CAKI-1 renal = test system: CAKI-1 renal
CCRF-CEM leukemia = test system: CCRF-CEM leukemia
COLO 205 colon = test system: COLO 205 colon
DU-145 prostate = test system: DU-145 prostate
EKVX NSCLC = test system: EKVX NSCLC
HCC-2998 colon = test system: HCC-2998 colon
HCT-116 colon = test system: HCT-116 colon
HCT-15 colon = test system: HCT-15 colon
HL-60(TB) leukemia = test system: HL-60(TB) leukemia
HOP-62 NSCLC = test system: HOP-62 NSCLC
HOP-92 NSCLC = test system: HOP-92 NSCLC
HS 578T breast = test system: HS 578T breast
HT29 colon = test system: HT29 colon
IGROV1 ovarian = test system: IGROV1 ovarian
K-562 leukemia = test system: K-562 leukemia
KM12 colon = test system: KM12 colon
LOX IMVI melanoma = test system: LOX IMVI melanoma
M14 melanoma = test system: M14 melanoma
MALME-3M melanoma = test system: MALME-3M melanoma
MCF7 breast = test system: MCF7 breast
MDA-MB-231 breast = test system: MDA-MB-231 breast
MDA-MB-468 breast = test system: MDA-MB-468 breast
MOLT-4 leukemia = test system: MOLT-4 leukemia
NCI-H226 lung = test system: NCI-H226 lung
NCI-H23 lung = test system: NCI-H23 lung
NCI-H460 lung = test system: NCI-H460 lung
NCI-H522 lung = test system: NCI-H522 lung
NCI/ADR-RES ovarian = test system: NCI/ADR-RES ovarian
OVCAR-4 ovarian = test system: OVCAR-4 ovarian
OVCAR-5 ovarian = test system: OVCAR-5 ovarian
OVCAR-8 ovarian = test system: OVCAR-8 ovarian
PC-3 prostate = test system: PC-3 prostate
RPMI-8226 leukemia = test system: RPMI-8226 leukemia
RXF 393 renal = test system: RXF 393 renal
SF-268 CNS = test system: SF-268 CNS
SF-295 CNS = test system: SF-295 CNS
SF-539 CNS = test system: SF-539 CNS
SK-MEL-2 melanoma = test system: SK-MEL-2 melanoma
SK-MEL-28 melanoma = test system: SK-MEL-28 melanoma
SK-MEL-5 melanoma = test system: SK-MEL-5 melanoma
SK-OV-3 ovarian = test system: SK-OV-3 ovarian
SN12C renal = test system: SN12C renal
SNB-19 CNS = test system: SNB-19 CNS
SNB-75 CNS = test system: SNB-75 CNS
SR leukemia = test system: SR leukemia
SW-620 colon = test system: SW-620 colon
T-47D breast = test system: T-47D breast
TK-10 renal = test system: TK-10 renal
U251 CNS = test system: U251 CNS
UACC-257 melanoma = test system: UACC-257 melanoma
UACC-62 melanoma = test system: UACC-62 melanoma
UO-31 renal = test system: UO-31 renal

Question: For `N#Cc1ccc(/C=N/NC(=O)c2[nH]c3ccc(Br)cc3c2-c2ccccc2)o1`, which GI50 (786-0 renal) is on record?
Answer: 308 nM

Question: What about the TGI (786-0 renal) of the same compound?
Answer: 10100 nM

Question: What about the GI50 (A498 renal) of the same compound?
Answer: 15600 nM

Question: What about the TGI (A498 renal) of the same compound?
Answer: 42300 nM

Question: What about the GI50 (A549 NSCLC) of the same compound?
Answer: 383 nM

Question: And the TGI (A549 NSCLC)?
Answer: 14000 nM

Question: What about the GI50 (ACHN renal) of the same compound?
Answer: 420 nM

Question: What about the TGI (ACHN renal) of the same compound?
Answer: 13400 nM

Question: And the GI50 (BT-549 breast)?
Answer: 243 nM

Question: What about the TGI (BT-549 breast) of the same compound?
Answer: 3220 nM

Question: And the GI50 (CAKI-1 renal)?
Answer: 427 nM

Question: What about the TGI (CAKI-1 renal) of the same compound?
Answer: 16200 nM

Question: And the GI50 (CCRF-CEM leukemia)?
Answer: 295 nM

Question: What about the TGI (CCRF-CEM leukemia) of the same compound?
Answer: > 54500 nM

Question: What about the GI50 (COLO 205 colon) of the same compound?
Answer: 198 nM

Question: What about the TGI (COLO 205 colon) of the same compound?
Answer: 371 nM

Question: What about the GI50 (DU-145 prostate) of the same compound?
Answer: 379 nM

Question: What about the TGI (DU-145 prostate) of the same compound?
Answer: 14800 nM

Question: And the GI50 (EKVX NSCLC)?
Answer: 496 nM

Question: And the TGI (EKVX NSCLC)?
Answer: 27300 nM

Question: And the GI50 (HCC-2998 colon)?
Answer: 278 nM

Question: And the TGI (HCC-2998 colon)?
Answer: 2620 nM

Question: And the GI50 (HCT-116 colon)?
Answer: 198 nM

Question: What about the TGI (HCT-116 colon) of the same compound?
Answer: 11700 nM

Question: What about the GI50 (HCT-15 colon) of the same compound?
Answer: 333 nM

Question: And the TGI (HCT-15 colon)?
Answer: 13700 nM

Question: What about the GI50 (HL-60(TB) leukemia) of the same compound?
Answer: 196 nM

Question: What about the TGI (HL-60(TB) leukemia) of the same compound?
Answer: 2780 nM

Question: And the GI50 (HOP-62 NSCLC)?
Answer: 350 nM

Question: What about the TGI (HOP-62 NSCLC) of the same compound?
Answer: 13500 nM

Question: What about the GI50 (HOP-92 NSCLC) of the same compound?
Answer: 2120 nM

Question: What about the TGI (HOP-92 NSCLC) of the same compound?
Answer: 18200 nM

Question: What about the GI50 (HS 578T breast) of the same compound?
Answer: 313 nM

Question: What about the TGI (HS 578T breast) of the same compound?
Answer: 20100 nM

Question: And the GI50 (HT29 colon)?
Answer: 204 nM

Question: And the TGI (HT29 colon)?
Answer: 2520 nM

Question: What about the GI50 (IGROV1 ovarian) of the same compound?
Answer: 404 nM

Question: What about the TGI (IGROV1 ovarian) of the same compound?
Answer: 16600 nM

Question: What about the GI50 (K-562 leukemia) of the same compound?
Answer: 128 nM

Question: What about the TGI (K-562 leukemia) of the same compound?
Answer: 15000 nM

Question: And the GI50 (KM12 colon)?
Answer: 315 nM

Question: What about the TGI (KM12 colon) of the same compound?
Answer: 11300 nM

Question: And the GI50 (LOX IMVI melanoma)?
Answer: 124 nM

Question: And the TGI (LOX IMVI melanoma)?
Answer: 11600 nM

Question: What about the GI50 (M14 melanoma) of the same compound?
Answer: 324 nM

Question: What about the TGI (M14 melanoma) of the same compound?
Answer: 22700 nM

Question: And the GI50 (MALME-3M melanoma)?
Answer: 434 nM

Question: And the TGI (MALME-3M melanoma)?
Answer: 22200 nM

Question: And the GI50 (MCF7 breast)?
Answer: 306 nM

Question: And the TGI (MCF7 breast)?
Answer: 16700 nM

Question: And the GI50 (MDA-MB-231 breast)?
Answer: 246 nM

Question: What about the TGI (MDA-MB-231 breast) of the same compound?
Answer: 655 nM

Question: And the GI50 (MDA-MB-468 breast)?
Answer: 318 nM

Question: What about the TGI (MDA-MB-468 breast) of the same compound?
Answer: 14100 nM

Question: And the GI50 (MOLT-4 leukemia)?
Answer: 352 nM

Question: And the TGI (MOLT-4 leukemia)?
Answer: 32700 nM

Question: And the GI50 (NCI-H226 lung)?
Answer: 1110 nM

Question: And the TGI (NCI-H226 lung)?
Answer: 27500 nM

Question: And the GI50 (NCI-H23 lung)?
Answer: 338 nM

Question: What about the TGI (NCI-H23 lung) of the same compound?
Answer: 14000 nM

Question: And the GI50 (NCI-H460 lung)?
Answer: 347 nM

Question: And the TGI (NCI-H460 lung)?
Answer: 10700 nM

Question: What about the GI50 (NCI-H522 lung) of the same compound?
Answer: 91.4 nM

Question: What about the TGI (NCI-H522 lung) of the same compound?
Answer: 340 nM

Question: And the GI50 (NCI/ADR-RES ovarian)?
Answer: 136 nM

Question: What about the TGI (NCI/ADR-RES ovarian) of the same compound?
Answer: 408 nM

Question: And the GI50 (OVCAR-4 ovarian)?
Answer: 1100 nM

Question: What about the TGI (OVCAR-4 ovarian) of the same compound?
Answer: 25300 nM

Question: What about the GI50 (OVCAR-5 ovarian) of the same compound?
Answer: 406 nM

Question: And the TGI (OVCAR-5 ovarian)?
Answer: 21100 nM

Question: What about the GI50 (OVCAR-8 ovarian) of the same compound?
Answer: 226 nM

Question: And the TGI (OVCAR-8 ovarian)?
Answer: 624 nM

Question: What about the GI50 (PC-3 prostate) of the same compound?
Answer: 482 nM

Question: What about the TGI (PC-3 prostate) of the same compound?
Answer: 19700 nM

Question: What about the GI50 (RPMI-8226 leukemia) of the same compound?
Answer: 369 nM

Question: What about the TGI (RPMI-8226 leukemia) of the same compound?
Answer: 27900 nM

Question: What about the GI50 (RXF 393 renal) of the same compound?
Answer: 486 nM

Question: What about the TGI (RXF 393 renal) of the same compound?
Answer: 14700 nM

Question: What about the GI50 (SF-268 CNS) of the same compound?
Answer: 611 nM

Question: And the TGI (SF-268 CNS)?
Answer: 20300 nM

Question: And the GI50 (SF-295 CNS)?
Answer: 321 nM

Question: And the TGI (SF-295 CNS)?
Answer: 13300 nM

Question: And the GI50 (SF-539 CNS)?
Answer: 212 nM

Question: What about the TGI (SF-539 CNS) of the same compound?
Answer: 527 nM

Question: And the GI50 (SK-MEL-2 melanoma)?
Answer: 294 nM

Question: And the TGI (SK-MEL-2 melanoma)?
Answer: 13500 nM

Question: And the GI50 (SK-MEL-28 melanoma)?
Answer: 806 nM

Question: And the TGI (SK-MEL-28 melanoma)?
Answer: 21100 nM

Question: What about the GI50 (SK-MEL-5 melanoma) of the same compound?
Answer: 272 nM

Question: And the TGI (SK-MEL-5 melanoma)?
Answer: 770 nM

Question: What about the GI50 (SK-OV-3 ovarian) of the same compound?
Answer: 513 nM

Question: What about the TGI (SK-OV-3 ovarian) of the same compound?
Answer: 22500 nM

Question: And the GI50 (SN12C renal)?
Answer: 389 nM

Question: What about the TGI (SN12C renal) of the same compound?
Answer: 12600 nM

Question: And the GI50 (SNB-19 CNS)?
Answer: 394 nM

Question: What about the TGI (SNB-19 CNS) of the same compound?
Answer: 17000 nM

Question: What about the GI50 (SNB-75 CNS) of the same compound?
Answer: 369 nM

Question: What about the TGI (SNB-75 CNS) of the same compound?
Answer: 14600 nM

Question: And the GI50 (SR leukemia)?
Answer: 152 nM

Question: And the GI50 (SW-620 colon)?
Answer: 421 nM

Question: And the TGI (SW-620 colon)?
Answer: 20100 nM

Question: And the GI50 (T-47D breast)?
Answer: 4660 nM

Question: And the TGI (T-47D breast)?
Answer: 32900 nM

Question: What about the GI50 (TK-10 renal) of the same compound?
Answer: 7320 nM

Question: What about the TGI (TK-10 renal) of the same compound?
Answer: 26900 nM

Question: And the GI50 (U251 CNS)?
Answer: 330 nM

Question: And the TGI (U251 CNS)?
Answer: 12300 nM

Question: What about the GI50 (UACC-257 melanoma) of the same compound?
Answer: 1190 nM

Question: And the TGI (UACC-257 melanoma)?
Answer: 19700 nM

Question: What about the GI50 (UACC-62 melanoma) of the same compound?
Answer: 392 nM

Question: And the TGI (UACC-62 melanoma)?
Answer: 17900 nM

Question: What about the GI50 (UO-31 renal) of the same compound?
Answer: 454 nM

Question: What about the TGI (UO-31 renal) of the same compound?
Answer: 15400 nM
